# Molecular target: recombinant human ACC2 (Homo sapiens (Human), UniProt O00763)
# Assay: Measurement of inhibitory activity on human ACC2 (MALDI-TOF MS, acetyl CoA to malonyl CoA conversion)
# Assay type: biochemical
# Settings: Table 154
# Procedure, shortened: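 His-tagged human ACC2 (residues 27–2458) from baculovirus-infected Sf-9 cells was preincubated 1 h in pH 7.4 HEPES-KOH buffer with MgCl2, 6-10 mM potassium citrate, glutathione and BSA. Substrate solution held 1 mM ATP, 0.8 mM acetyl CoA and 25-50 mM bicarbonate. After 1–3 h at room temperature, malonyl CoA/(malonyl+acetyl CoA) was read by negative-mode MALDI-TOF MS; citrate, bicarbonate and time varied by enzyme lot.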
# Chain of recombinant human ACC2 (O00763 27-2458): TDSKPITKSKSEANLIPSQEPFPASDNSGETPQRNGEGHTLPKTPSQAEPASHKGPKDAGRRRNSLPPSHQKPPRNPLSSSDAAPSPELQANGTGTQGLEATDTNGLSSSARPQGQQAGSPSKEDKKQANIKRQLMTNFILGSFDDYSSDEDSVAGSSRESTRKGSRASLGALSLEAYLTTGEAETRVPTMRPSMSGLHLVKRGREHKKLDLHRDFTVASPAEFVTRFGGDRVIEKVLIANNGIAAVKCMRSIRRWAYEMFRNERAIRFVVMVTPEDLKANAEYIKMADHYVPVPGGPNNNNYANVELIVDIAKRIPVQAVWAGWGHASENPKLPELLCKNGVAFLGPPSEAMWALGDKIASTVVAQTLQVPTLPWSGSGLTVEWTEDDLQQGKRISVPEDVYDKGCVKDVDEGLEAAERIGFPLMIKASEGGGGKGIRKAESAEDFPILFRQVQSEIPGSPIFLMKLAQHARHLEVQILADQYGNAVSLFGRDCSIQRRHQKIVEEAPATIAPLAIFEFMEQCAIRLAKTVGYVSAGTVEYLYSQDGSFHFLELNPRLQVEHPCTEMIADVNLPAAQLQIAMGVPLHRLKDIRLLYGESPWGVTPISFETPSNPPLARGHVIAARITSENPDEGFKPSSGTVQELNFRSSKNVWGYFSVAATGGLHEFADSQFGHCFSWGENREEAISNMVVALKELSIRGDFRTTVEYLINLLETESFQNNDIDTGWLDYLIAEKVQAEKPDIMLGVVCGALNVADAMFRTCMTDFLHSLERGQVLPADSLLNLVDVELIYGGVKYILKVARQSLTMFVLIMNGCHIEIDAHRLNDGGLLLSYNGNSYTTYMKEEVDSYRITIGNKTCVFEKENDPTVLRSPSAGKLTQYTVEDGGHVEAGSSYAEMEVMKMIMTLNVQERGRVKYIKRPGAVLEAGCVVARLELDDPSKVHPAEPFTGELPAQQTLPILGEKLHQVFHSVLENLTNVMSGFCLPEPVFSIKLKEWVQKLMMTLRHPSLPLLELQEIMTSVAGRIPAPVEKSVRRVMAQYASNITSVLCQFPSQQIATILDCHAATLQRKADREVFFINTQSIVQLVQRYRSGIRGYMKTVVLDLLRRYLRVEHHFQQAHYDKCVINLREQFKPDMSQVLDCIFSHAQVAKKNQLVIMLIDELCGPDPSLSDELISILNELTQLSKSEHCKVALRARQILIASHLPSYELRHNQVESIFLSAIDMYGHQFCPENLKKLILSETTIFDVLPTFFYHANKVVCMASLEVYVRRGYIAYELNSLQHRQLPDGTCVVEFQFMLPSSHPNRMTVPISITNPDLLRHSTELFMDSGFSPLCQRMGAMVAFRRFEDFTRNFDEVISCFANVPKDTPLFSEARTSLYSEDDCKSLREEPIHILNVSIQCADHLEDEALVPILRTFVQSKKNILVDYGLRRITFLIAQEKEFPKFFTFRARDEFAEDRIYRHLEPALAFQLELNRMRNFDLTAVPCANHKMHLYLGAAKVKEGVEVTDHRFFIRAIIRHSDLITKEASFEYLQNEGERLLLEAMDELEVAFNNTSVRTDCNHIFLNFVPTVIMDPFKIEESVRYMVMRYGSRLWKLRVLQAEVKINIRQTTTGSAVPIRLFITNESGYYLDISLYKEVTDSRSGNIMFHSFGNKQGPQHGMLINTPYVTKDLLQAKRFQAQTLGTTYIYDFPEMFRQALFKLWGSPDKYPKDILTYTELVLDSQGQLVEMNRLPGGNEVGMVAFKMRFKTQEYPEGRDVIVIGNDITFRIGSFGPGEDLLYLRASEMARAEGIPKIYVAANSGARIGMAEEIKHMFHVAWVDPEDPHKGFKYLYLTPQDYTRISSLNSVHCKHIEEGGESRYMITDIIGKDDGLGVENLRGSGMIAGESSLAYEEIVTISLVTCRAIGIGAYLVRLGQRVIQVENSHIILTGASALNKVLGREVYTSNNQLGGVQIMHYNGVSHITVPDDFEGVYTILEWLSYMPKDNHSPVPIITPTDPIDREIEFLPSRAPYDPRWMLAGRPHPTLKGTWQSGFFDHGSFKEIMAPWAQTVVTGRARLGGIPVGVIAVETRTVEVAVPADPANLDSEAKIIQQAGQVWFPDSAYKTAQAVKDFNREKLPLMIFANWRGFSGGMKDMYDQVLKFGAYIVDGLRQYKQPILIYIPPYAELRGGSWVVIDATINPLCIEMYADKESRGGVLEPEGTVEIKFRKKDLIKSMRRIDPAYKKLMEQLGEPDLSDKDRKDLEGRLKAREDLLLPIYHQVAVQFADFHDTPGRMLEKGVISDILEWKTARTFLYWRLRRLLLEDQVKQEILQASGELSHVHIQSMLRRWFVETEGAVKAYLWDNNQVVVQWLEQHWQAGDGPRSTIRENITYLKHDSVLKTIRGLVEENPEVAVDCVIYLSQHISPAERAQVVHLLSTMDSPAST
row,Structure (SMILES),IC50
1,CC(=O)N[C@@H](C)[C@H](C)Oc1cnc(Oc2ccc3nc(C(C)(F)F)sc3c2F)cn1 [Compound I-056],57 nM
2,CC(=O)N[C@@H](C)COc1cnc(Oc2ccc3nc(C(C)(C)O)sc3c2Cl)cn1 [Compound I-027],378 nM
3,CCc1nsc2c(Cl)c(Oc3cnc(OC[C@H](C)NC(C)=O)cn3)ccc12 [Compound I-063],128 nM
4,CC(=O)N[C@@H](C)COc1cnc(Oc2ccc3sc(C(C)C)nc3c2Cl)cn1 [Compound I-070],469 nM
5,CC(=O)N[C@@H](C)COc1cnc(Oc2ccc3nc(C(C)C)oc3c2F)cn1 [Compound I-031],52 nM

# Same assay, conditions: Tables 155-159
row,Structure (SMILES),IC50
1,CC(=O)N[C@@H](C)CO[C@H]1C[C@H](COc2nccc3c2OCCN3Cc2ccccc2)C1 [Compound I-382],176 nM
2,CC(=O)N[C@@H](CO)CO[C@H]1CC[C@H](Oc2nc3cnc(OCC(F)F)c(Cl)c3n2C)CC1 [Compound I-669],620 nM
3,CC(=O)N[C@@H](C)CO[C@H]1C[C@H](COc2nccc(-c3ncc(OC(C)C)cn3)c2Cl)C1 [Compound I-312],401 nM
4,CC(=O)N[C@@H](C)CO[C@H]1C[C@H](COc2ccc3nc(OCC4CCO4)sc3n2)C1 (stereo partly drawn) [Compound I-199],121 nM
5,CC(=O)N[C@@H](C)CO[C@H]1C[C@H](COc2ncnc3c2ccn3Cc2ccccc2)C1 [Compound I-430],12 nM
6,CCOc1cc(F)c2c(nc(O[C@H]3CC[C@H](OC[C@H](C)NC(C)=O)CC3)n2C)c1F [Compound I-635],104 nM
7,CC(=O)N[C@@H](C)CO[C@H]1CC[C@H](Oc2ncc3nc(OC4CC4)sc3c2F)CC1 [Compound I-238],4 nM
8,CC(=O)N[C@@H](C)CO[C@H]1CC[C@](F)(COc2ccc3nc(OCC4CC4)sc3n2)CC1 [Compound I-201],17 nM
9,CC(=O)N[C@@H](C)CO[C@H]1C[C@H](COc2ccc3nc(O[C@@H]4CO[C@@H]5CCO[C@@H]54)sc3n2)C1 [Compound I-283],984 nM
10,CC(=O)N[C@@H](C)CC[C@@H]1CC[C@@H](Oc2nc3c(F)cc(OCC(F)F)c(Cl)c3n2C)CO1 [Compound I-688],4 nM
11,CC(=O)N[C@@H](C)CO[C@H]1C[C@H](COc2nccc(OCc3ccccc3)c2Cl)C1 [Compound I-395],7 nM
12,CC(=O)N[C@@H](C)CO[C@H]1C[C@H](COc2ccc3nc(OCC(C)(C)C#N)sc3n2)C1 [Compound I-302],52 nM
13,CC(=O)N[C@@H](C)CO[C@H]1C[C@H](COc2ccc3nc(C4(F)CC4)sc3c2F)C1 [Compound I-138],91 nM
14,CC(=O)N[C@@H](C)CO[C@H]1CC[C@H](Oc2ncnc(OCc3ncc(Cl)s3)c2Cl)CC1 [Compound I-455],50 nM
15,CC(=O)N[C@@H](C)CO[C@H]1C[C@H](COc2nccc(-c3ncc(C(F)(F)F)cn3)c2Cl)C1 [Compound I-322],63 nM
16,CC(=O)N[C@@H](C)CO[C@H]1C[C@H](COc2nccc(OC3C[C@@H]4CC[C@@H]3C4)c2Cl)C1 (stereo partly drawn) [Compound I-365],100 nM
17,CC(=O)N[C@@H](C)CO[C@H]1CC[C@H](Oc2nc3cnc(OC4(C)CC4)c(Cl)c3n2C)CC1 [Compound I-664],11 nM
18,CCOc1nc(F)c2nc(O[C@H]3CC[C@H](OC[C@H](C)NC(C)=O)CC3)n(C)c2c1Cl [Compound I-686],5 nM
19,CC(=O)N[C@@H](C)CO[C@H]1C[C@H](COc2nc3sc(OCC(F)(F)F)nc3cc2F)C1 [Compound I-181],14 nM
20,CC(=O)N[C@@H](C)CO[C@H]1CC[C@H](Oc2ncc3nc(O[C@H]4CCOC4)sc3c2F)CC1 [Compound I-276],13 nM
21,CC(=O)N[C@@H](C)CO[C@H]1C[C@H](COc2ccc3nc(C(C)(F)F)sc3c2)C1 [Compound I-139],90 nM
22,CCOc1ccc2nc(O[C@H]3CC[C@H](OC[C@H](C)NC(C)=O)CC3)n(C)c2c1Cl [Compound I-604],6 nM

row,Structure (SMILES),IC50
1,C[C@@H](CO[C@H]1CC[C@H](Oc2nc3c(F)cc(OCC(F)F)c(F)c3n2C)CC1)NC(=O)CC#N [Compound I-714],44 nM
2,CC(=O)N[C@@H](C)CO[C@H]1CC[C@H](Oc2ncc(-c3nccc(C#N)n3)cc2F)CC1 [Compound I-531],481 nM
3,CC(=O)N[C@@H](C)CO[C@H]1C[C@H](COc2ncnc(OCC(C)(F)F)c2Cl)C1 [Compound I-357],103 nM
4,CC(=O)N[C@@H](C)CO[C@H]1C[C@H](COc2ncnc(NCc3cccc(C#N)c3)c2Cl)C1 [Compound I-343],118 nM
5,CC(=O)N[C@@H](C)CO[C@H]1C[C@H](COc2nccc(N3CC4(CCC4)C3)c2Cl)C1 [Compound I-337],7 nM
6,CC(=O)N[C@@H](C)CO[C@H]1CC[C@H](Oc2ncc3nc(OC4CC(F)(F)C4)sc3c2F)CC1 [Compound I-252],8 nM
7,CC(=O)N[C@@H](C)CO[C@H]1C[C@H](COc2ccc3nc(N4CC(F)(F)C4)sc3n2)C1 [Compound I-215],21 nM
8,CC(=O)N[C@@H](C)CO[C@H]1C[C@H](Cn2ccc3c(OCc4ccccc4)ncnc32)C1 [Compound I-469],596 nM
9,CC(=O)N[C@@H](C)CO[C@H]1CC[C@H](Oc2cc3sc(O[C@H]4CCOC4)nc3cn2)CC1 [Compound I-259],86 nM
10,CC(=O)N[C@@H](C)CO[C@H]1C[C@H](COc2ccc3nc(OC[C@@H](C)F)sc3n2)C1 [Compound I-306],15 nM
11,CC(=O)N[C@@H](C)CO[C@H]1C[C@H](COc2ccc3nc(Oc4ccc(F)cc4)sc3c2F)C1 [Compound I-156],12 nM
12,CC(=O)N[C@@H](C)CO[C@H]1CC[C@H](Oc2cc3sc(OCC4CC4)nc3cn2)CC1 [Compound I-183],14 nM
13,C[C@@H](CO[C@H]1C[C@H](COc2ccc3nc(OCC(F)F)sc3n2)C1)NC(=O)C(F)(F)F [Compound I-207],11 nM
14,CC(=O)N[C@@H](C)CO[C@H]1C[C@H](c2nc3cnc(OCc4ccccc4)cc3o2)C1 [Compound I-456],280 nM
15,CCOc1c(F)cc2c(nc(O[C@H]3CC[C@H](OC[C@H](C)NC(C)=O)CC3)n2C)c1F [Compound I-685],170 nM
16,CC(=O)N[C@@H](C)CO[C@H]1C[C@H](COc2ncnc(OCc3ncccc3Cl)c2Cl)C1 [Compound I-386],70 nM
17,CC(=O)N[C@@H](C)CO[C@H]1C[C@H](COc2ncnc(OC3(c4ccccc4)CC3)c2Cl)C1 [Compound I-466],179 nM
18,CC(=O)N[C@@H](C)CO[C@H]1C[C@H](COc2cc(C)c3nc(OCC4CC4)n(C)c3n2)C1 [Compound I-486],724 nM
19,CCN(C)c1nc2ccc(O[C@H]3CC[C@H](OC[C@H](C)NC(C)=O)CC3)c(F)c2s1 [Compound I-190],73 nM
20,CC(=O)N[C@@H](C)CO[C@H]1C[C@H](COc2ccc3nc(C(C)(C)O)sc3c2)C1 [Compound I-148],404 nM
21,CC(=O)N[C@@H](C)CO[C@H]1CC[C@H](Oc2nc3c(F)cc(OCC4CC4)cc3n2C)CC1 [Compound I-737],33 nM
22,CC(=O)N[C@@H](C)CO[C@H]1CC[C@H](Oc2nc3ccc(OCC(F)F)c(F)c3n2C)CC1 [Compound I-677],13 nM

row,Structure (SMILES),IC50
1,CC(=O)N[C@@H](C)CO[C@H]1CC[C@H](Oc2nc3cnc(OCc4ccccc4)c(Cl)c3n2C)CC1 [Compound I-620],28 nM
2,COc1cc(-c2ncc(F)cn2)cnc1O[C@H]1CC[C@H](OC[C@H](C)NC(C)=O)CC1 [Compound I-527],158 nM
3,CC(=O)N[C@@H](C)CO[C@H]1CC[C@H](Oc2ccc3nc(N4CCC(F)(F)C4)sc3c2F)CC1 [Compound I-189],27 nM
4,CC(=O)N[C@@H](C)CO[C@H]1C[C@H](COc2ncnc(-c3ccc(F)cc3)c2C)C1 [Compound I-417],451 nM
5,COc1nc2ccc(OC[C@H]3C[C@H](OC[C@H](C)NC(C)=O)C3)nc2s1 [Compound I-250],31 nM
6,CC(=O)N[C@@H](C)CO[C@H]1C[C@H](COc2ccc3nc(OCC4CC4(F)F)n(C)c3n2)C1 (stereo partly drawn) [Compound I-477],247 nM
7,CC(=O)N[C@@H](C)CO[C@H]1OC[C@@H](Oc2nc3c(F)cc(OCC(F)F)c(F)c3n2C)C[C@@H]1C [Compound I-702],15 nM
8,CC(=O)N[C@@H](C)CO[C@H]1CC[C@H](Oc2cc3sc(OCC4(C#N)CC4)nc3cn2)CC1 [Compound I-264],372 nM
9,CC(=O)N[C@@H](C)CO[C@H]1CC[C@H](Oc2ncc(-c3ncc(Cl)cn3)cc2F)CC1 [Compound I-526],13 nM
10,CC(=O)N[C@@H](C)CO[C@H]1CC[C@H](Oc2nc3c(Cl)cc(Oc4ccccc4)cc3n2C)CC1 [Compound I-649],9 nM
11,CC(=O)N[C@@H](C)CO[C@H]1CC[C@H](Oc2ncc3nc(OCC4(C#N)CC4)sc3c2F)CC1 [Compound I-275],156 nM
12,CC(=O)N[C@@H](C)CO[C@H]1CC[C@H](Oc2cc3sc(OC(C)CF)nc3cc2Cl)CC1 (stereo partly drawn) [Compound I-168],95 nM
13,CC(=O)N[C@@H](C)CO[C@H]1C[C@H](COc2ccc3nc(OC4CC(F)(F)C4)sc3n2)C1 [Compound I-218],8 nM
14,CC(=O)N[C@@H](C)CO[C@H]1C[C@H](COc2ccc3nc(OC4CCCCC4)sc3n2)C1 [Compound I-244],7 nM
15,C[C@@H](CO[C@H]1CC[C@H](Oc2nc3c(F)cc(OCC(F)F)c(F)c3n2C)CC1)NC(=O)C(F)F [Compound I-614],11 nM
16,CC(=O)N[C@@H](C)CO[C@H]1CC[C@H](Oc2ccc3nc(OCC(F)(F)F)sc3c2F)CC1 [Compound I-121],9 nM
17,CC(=O)N[C@@H](C)CO[C@H]1C[C@H](COc2ncnc(OCc3ccc(C#N)cc3)c2Cl)C1 [Compound I-347],55 nM
18,CC(=O)N[C@@H](C)CO[C@H]1C[C@H](COc2ncnc(COc3ccccc3)c2Cl)C1 [Compound I-429],26 nM
19,CC(=O)N[C@@H](CF)CO[C@H]1CC[C@H](Oc2nc3cnc(OCC(F)F)c(Cl)c3n2C)CC1 [Compound I-728],8 nM
20,CC(=O)N[C@@H](C)CO[C@H]1C[C@H](COc2cc(C)c3nc(OC4CC4)sc3n2)C1 [Compound I-258],99 nM
